# From ChEMBL document CHEMBL1154668, “Design and synthesis of 6-oxo-1,6-dihydropyridines as CDK5 inhibitors” (Bioorg Med Chem Lett, 2009)
# Columns and labels:
# [1] = biological target: Cyclin-dependent kinase 5/CDK5 activator 1 (Homo sapiens, UniProt Q00535); test: Inhibition of human CDK5/p25 assessed as histone h1 phosphorylation in presence of ATP; type: protein-complex assay
# [2] = test system: Brain; test: Drug uptake in rat brain at 2 mg/kg, iv; type: ADME, organism-based; set-up: dose 2 mg/kg, route intravenous; conditions: in vivo
# [3] = species on record: Homo sapiens; test: Selectivity for human CDK5/p25 over human CDK2/cyclin E2
# Chain of Cyclin-dependent kinase 5/CDK5 activator 1 (Q00535 whole entry): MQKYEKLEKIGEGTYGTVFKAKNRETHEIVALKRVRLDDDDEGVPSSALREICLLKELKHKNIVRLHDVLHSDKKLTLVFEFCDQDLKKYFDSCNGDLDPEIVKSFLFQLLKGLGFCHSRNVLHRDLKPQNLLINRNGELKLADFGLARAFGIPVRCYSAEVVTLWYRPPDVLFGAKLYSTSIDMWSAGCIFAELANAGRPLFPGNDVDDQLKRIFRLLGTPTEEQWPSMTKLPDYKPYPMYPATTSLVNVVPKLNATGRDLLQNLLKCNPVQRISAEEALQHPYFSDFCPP
# Chain of Cyclin-dependent kinase 5/CDK5 activator 1 (Q15078 whole entry, further chain): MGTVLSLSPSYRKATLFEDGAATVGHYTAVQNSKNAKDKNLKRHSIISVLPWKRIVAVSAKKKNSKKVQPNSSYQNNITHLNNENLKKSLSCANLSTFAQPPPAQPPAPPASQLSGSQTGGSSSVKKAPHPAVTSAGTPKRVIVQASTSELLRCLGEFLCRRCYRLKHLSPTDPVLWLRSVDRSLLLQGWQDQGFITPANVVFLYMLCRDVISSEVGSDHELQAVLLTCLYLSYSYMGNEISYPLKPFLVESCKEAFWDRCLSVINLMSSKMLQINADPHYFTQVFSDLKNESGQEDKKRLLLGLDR
IC50 [1] [µM],Drug uptake [2] [ng/g],fold change (FC) [3],Structure (SMILES)
0.16,–,–,CCOC(=O)c1cc(-c2csc(-c3ccnc(Cl)c3)n2)c(=O)[nH]c1C
11.5,–,–,CCOC(=O)c1cc(-c2csc(-c3ccncc3)n2)c(=O)[nH]c1C(F)(F)F
0.073,–,–,CC(C)c1[nH]c(=O)c(-c2csc(-c3ccncc3)n2)cc1C(=O)OC1CCCN(C)C1 (stereo not drawn)
0.055,–,–,CCCc1[nH]c(=O)c(-c2csc(-c3ccncc3)n2)cc1C(=O)OCC
0.157,4640,–,CCOC(=O)c1cc(-c2csc(-c3ccncc3)n2)c(=O)[nH]c1C(C)C
0.036,–,–,CCN(CC)CC(C)OC(=O)c1cc(-c2csc(-c3ccncc3)n2)c(=O)[nH]c1C(C)C (stereo not drawn)
0.131,–,–,CCOC(=O)c1cc(-c2csc(-c3ccncc3)n2)c(=O)[nH]c1C
0.139,–,–,CCOC(=O)c1cc(-c2csc(-c3ccnc(NCCN(CC)CC)c3)n2)c(=O)[nH]c1C
0.028,–,–,CCOC(=O)c1cc(-c2csc(-c3ccnc(NC)c3)n2)c(=O)[nH]c1C(C)C
0.0014,–,70,CCCc1[nH]c(=O)c(-c2csc(CS(=O)(=O)c3ccccc3)n2)cc1C(=O)OCC
0.779,–,–,CCOC(=O)c1cc(-c2csc(-c3ccncc3)n2)c(=O)[nH]c1COCc1ccccc1
0.047,–,–,CCN(CC)CCCOC(=O)c1cc(-c2csc(-c3ccncc3)n2)c(=O)[nH]c1C(C)C
0.647,–,–,CC(C)c1[nH]c(=O)c(-c2csc(-c3ccncc3)n2)cc1C(=O)OC1CCN(C)CC1
0.0041,–,–,CCOC(=O)c1cc(-c2csc(-c3ccncc3)n2)c(=O)[nH]c1CC
0.0053,–,70,CCOC(=O)c1cc(-c2csc(CS(=O)(=O)c3ccccc3)n2)c(=O)[nH]c1COCc1ccccc1
0.014,–,–,CCOC(=O)c1cc(-c2csc(-c3ccnc(NCC(C)C)c3)n2)c(=O)[nH]c1C
0.119,–,–,CC(C)c1[nH]c(=O)c(-c2csc(-c3ccncc3)n2)cc1C(=O)OCCc1ccccc1
0.02,–,–,CCOC(=O)c1cc(-c2csc(-c3ccnc(N)c3)n2)c(=O)[nH]c1C
0.112,–,–,CC(C)c1[nH]c(=O)c(-c2csc(-c3ccncc3)n2)cc1C(=O)OCCN1CCCC1
0.053,–,–,CCN(CC)CCOC(=O)c1cc(-c2csc(-c3ccncc3)n2)c(=O)[nH]c1C(C)C
0.0033,44,70,CCOC(=O)c1cc(-c2csc(CS(=O)(=O)c3ccccc3)n2)c(=O)[nH]c1C
0.672,–,–,CCOC(=O)c1cc(-c2csc(-c3ccnc(OC)c3)n2)c(=O)[nH]c1C(C)C
0.198,–,–,CCOC(=O)c1cc(-c2csc(-c3ccncc3)n2)c(=O)[nH]c1C1CC1
